Assays:
[1] = Ratio of drug level in brain to plasma in mouse at 5 mg/kg, iv after 4 hrs; assay type: ADME, organism-based; set-up: dose 5 mg/kg, route intravenous; conditions: read-out: BPR
[2] = Permeability from basolateral to apical side of the Caco-2 cell membrane; assay type: ADME, cell-based; conditions: human, read-out: permeability
[3] = Drug level in rat brain at 5 mg/kg, iv after 1 hr; assay type: ADME, organism-based; set-up: dose 5 mg/kg, route intravenous; conditions: read-out: Drug uptake
[4] = Plasma clearance in mouse at 5 mg/kg, iv; assay type: ADME, organism-based; set-up: dose 5 mg/kg, route intravenous
[5] = Volume of distribution in mouse at 5 mg/kg, iv; assay type: ADME, organism-based; set-up: dose 5 mg/kg, route intravenous; conditions: in vivo
[6] = Half life in mouse at 5 mg/kg, iv; assay type: ADME, organism-based; set-up: dose 5 mg/kg, route intravenous; conditions: in vivo
[7] = AUC in mouse at 5 mg/kg, iv; assay type: ADME, organism-based; set-up: dose 5 mg/kg, route intravenous; conditions: plasma
[8] = Drug level in mouse brain at 5 mg/kg, iv after 1 hr; assay type: ADME, organism-based; set-up: dose 5 mg/kg, route intravenous; conditions: read-out: Drug uptake
[9] = Drug level in mouse brain at 5 mg/kg, iv after 4 hrs; assay type: ADME, organism-based; set-up: dose 5 mg/kg, route intravenous; conditions: read-out: Drug uptake
[10] = Ratio of drug level in brain to plasma in rat at 5 mg/kg, iv after 1 hr; assay type: ADME, organism-based; set-up: dose 5 mg/kg, route intravenous; conditions: read-out: BPR
[11] = Cmax in mouse at 10 mg/kg, po after 2 hrs; assay type: ADME, organism-based; set-up: dose 10 mg/kg, route oral; conditions: in vivo
[12] = Tmax in mouse at 10 mg/kg, po; assay type: ADME, organism-based; set-up: dose 10 mg/kg, route oral; conditions: in vivo
[13] = AUC in mouse at 10 mg/kg, po; assay type: ADME, organism-based; set-up: dose 10 mg/kg, route oral; conditions: plasma
[14] = Oral bioavailability in mouse at 10 mg/kg, po; assay type: ADME, organism-based; conditions: in vivo
[15] = Lipophilicity, log D by shake-flask method; assay type: physicochemical; conditions: octanol/water
[16] = Ratio of drug level in brain to plasma in mouse at 5 mg/kg, iv after 1 hr; assay type: ADME, organism-based; set-up: dose 5 mg/kg, route intravenous; conditions: read-out: BPR
[17] = Apparent permeability across Caco-2 cells; assay type: ADME, cell-based; conditions: human

Kp at 4 h [1] | Papp B→A [2] [×10⁻⁶ cm/s] | concentration at 1 h [3] [ng/g] | clearance [4] [mL/min/kg] | Vd [5] [L/kg] | half-life [6] [h] | AUC [7] [ng·h/mL] | concentration at 1 h [8] [ng/g] | concentration at 4 h [9] [ng/g] | Kp at 1 h [10] | Cmax [11] [ng/mL] | Tmax [12] [h] | AUC [13] [ng·h/mL] | bioavailability [14] [%] | logD [15] | Kp at 1 h [16] | Papp [17] [×10⁻⁶ cm/s] | SMILES
0.23 |  |  |  |  |  |  |  |  |  |  |  |  |  |  |  |  | CC(C)C[C@H](NCCN)c1cc(F)ccc1N1CCN(C(=O)[C@@H](Cc2ccc(Cl)cc2Cl)N2CCCC2=O)CC1
 | 6.7 | 81 | 15 | 13 | 10 | 9980 | 63 | 53 | 0.47 | 552 | 2 | 1950 | 19.5 | 1.8 | 0.14 | 2 | CC(C)C[C@H](NCCN)c1cccc(F)c1N1CCN(C(=O)[C@@H](Cc2ccc(Cl)cc2Cl)N2CCCC2=O)CC1

— ChEMBL document CHEMBL1137470, “Pyrrolidinones as potent functional antagonists of the human melanocortin-4 receptor” (Bioorg Med Chem Lett, 2007)
